Measured values reported in patent US20240270811A1, “Glycosylated Neuropeptide Derivative, Pharmaceutical Composition, Intranasal/Nasal Drop Formulation, and Use of Pharmaceutical Composition” (Tokyo University of Science Foundation, priority 2021, published 2024).
Where no end group is shown, it is not given here. The star is where a group is joined. Cam = NC(=O)C*

Columns and labels:
[1] = Solubility of GLP-2/GLP-1 derivatives with respect to aqueous medium (PBS); format: physicochemical
Protocol: Samples were prepared by dispensing a Milli-Q aqueous solution of PAS-CPP-GLP-2 (no sugar), PAS-CPP-GLP-2 (5-sugar) or PAS-CPP-GLP-2 (11-sugar) to a microtube by an amount of 5 nmol/tube, 30 nmol/tube, 60 nmol/tube, 120 nmol/tube or 200 nmol/tube, and freeze-drying the same. The freeze-dried samples were added with […] of PBS (Dulbecco's Phosphate Buffered Saline; Sigma-Aldrich, herein after the same), subjected to ultrasonic treatment, and allowed to stand overnight. Thereafter, the concentration of the peptide was measured. Specifically, a supernatant obtained by centrifuging the sample suspension was subjected to the measurement of OD (280 nm) with a spectrometer (NanoDrop™ 2000c spectrometer; Thermo Fisher Scientific K.K.)
Administration solutions were prepared by mixing a PAS-CPP-GLP-2 derivative (no sugar) or a PAS-CPP-GLP-2 derivative (11-sugar) with PBS. […] The concentration of each GLP-2 derivative was adjusted to 0.6 nmol/4 μL.
(§1) The concentration of a PAS-CPP-GLP-2 derivative (no sugar) or a PAS-CPP-GLP-2 derivative (11-sugar) was adjusted to 3.0 nmol/4 μL.

[2] = Migration to central nervous system, optical imaging of brain sagittal sections (ICG-labelled derivatives); format: in vivo, mouse; details: 3.0 nmol/4 μL intranasal
Protocol: Administration solutions were prepared by completely dissolving a PAS-CPP-GLP-2 derivative (no sugar) labelled with ICG or a PAS-CPP-GLP-2 derivative (11-sugar) labelled with ICG in DMSO, and adjusting the final concentration of DMSO to 16% by adding PBS.
as §1
After anesthetizing mice with isoflurane using an all-in-one small animal anesthetizer, the administration solutions or 16% DMSO as a control was intranasally administered to the mice by the amount of 2 μL per nose cavity, 4 μL in total.
In order to observe the migration to the brain over time, the brain was isolated 5 minutes, 10 minutes, 20 minutes, 60 minutes and 90 minutes after the intranasal administration, respectively, and subjected to infiltration fixation with 4% paraformaldehyde (4% PFA) solution overnight. Subsequently, a sagittal section with a thickness of 2 mm at the left and the right from the center of the brain was prepared using a brain matrix (RBM-2000S, ASI). The section was placed in a dish and analyzed with an optical imaging apparatus (Clairvivo OPT plus, Shimadzu Corporation) at an excitation wavelength of 785 nm, fluorescence wavelength of 849 nm, and an exposure time: 6 seconds.

[3] = Amount of migration to brain quantified by GLP-2 ELISA; format: in vivo; details: 6.0 nmol/mouse intranasal, brain isolated 20 minutes after administration
Protocol: Mice were intranasally administered with 16% DMSO or GLP-2 derivatives (6.0 nmol/mouse). The brain was isolated 20 minutes after the administration, and homogenized with BioMasher II (Nippi, Tokyo, Japan). A sample was prepared by performing centrifugal separation by 1000×g for 15 minutes and collecting a supernatant. The amount of a GLP-2 derivative in the sample was quantified using a GLP-2 ELISA kit. Specifically, a cleaning process including filling each well of a measurement plate with a cleaning fluid (350 μL) and suctioning the cleaning fluid with a pipette was performed three times. Subsequently, a labeled antigen solution (40 μL), a sample (25 μL) and a specific antibody solution (50 μL) were added in this order to the well and mixed. The measurement plate was tightly sealed and allowed to stand for 18 hours at 4° C. The cleaning process was performed three times, and a SA-HRP solution (100 μL) was added and allowed to permeate for 1.5 hours at room temperature (60 rpm). […] Finally, an enzyme reaction stop solution (100 μL) was added and an absorbance at 490 nm was measured with ARVO (PerkinElmer Japan Co., Ltd., Kanagawa, Japan) to calculate the concentration of a GLP-2 derivative.

[4] = test system: 7-week-old male ddY mouse; assay: Forced swim test (FST) after intranasal administration; format: in vivo; details: 16% DMSO in PBS, 0.6 nmol/mouse intranasal, 20 minutes before test session
Protocol: Administration solutions were prepared by completely dissolving PAS-CPP-GLP-2 derivative (no sugar) or PAS-CPP-GLP-2 derivatives (11-sugar, 5-sugar) in DMSO and adding PBS such that the final concentration of DMSO was 16% by mass. The concentration of each GLP-2 derivative was adjusted to 0.6 nmol/4 μL.
After anesthetizing mice with isoflurane using an all-in-one small animal anesthetizer (MK-AT210D, Muromachi Kikai Co., Ltd., hereinafter the same), the solution was intranasally administered to the mice. Specifically, the intranasal administration was performed by contacting a tip of the anesthetizer to a nasal cavity in a horizontal manner such that the solution was inhaled by spontaneous respiration, by the amount of 2 μL per nose cavity, 4 μL in total (0.6 nmol/mouse). […]
A 7-week-old male ddY mouse is placed in a transparent plastic cylinder with a diameter of 18 cm and a height of 50 cm containing water at a temperature of 25° C.±1° C. to a height of 7 cm, and is allowed to swim for 15 minutes. […] The behavior of the mouse is recorded over the test session with a video camera. […] The time during which the mouse is in a state of immobility (immobility time) is measured in the first 6 minutes from the start of the test session. The existence or non-existence of anti-depressant-like effects is determined by the length of the immobility time. […]

Substance	solubility with respect to PBS (FIG. 1) [1]	fluorescence in brain section ([2]; 10 minutes after administration)	fluorescence in brain section ([2]; 20 minutes after administration)	fluorescence in brain section ([2]; 60 minutes after administration)	amount of GLP-2 derivative in brain [3]	immobility time / anti-depressant-like effect vs control group [4]
FFLIPKGRRRRRRRRGGHADGSFSDEMNTILDNLAARDFINWLIQTKITDC(Cam)-OH [PAS-CPP-GLP-2 (no sugar), reference compound]	not dissolved in PBS at all	fluorescence was observed at a region around the hippocampus	fluorescence was observed	fluorescence was not observed	below the detection limit	
glucagon-like peptide-2 (HADGSFSDEMNTILDNLAARDFINWLIQTKITD; GLP-2)						did not show a significant decrease in immobility time
